According to patent publication US11813306B2, “Cyclic tetramer compounds as proprotein convertase subtilisin/kexin type 9 (PCSK9) inhibitors for the treatment of metabolic disorders” (NOVARTIS AG, priority 2018, dated 2023):
pIC50: −log10 of the molar value.

Target: human PCSK9 (Homo sapiens, UniProt Q8NBP7)
Test: PCSK9 ligand binding assay (TR-FRET): interference with binding of human PCSK9 to human LDLR
Conditions: for pIC50: Human PCSK9 Alexa Fluor 647 / Human LDLR extracellular domain-Europium Kryptate; for Max % inhibition: efficacy (Amax), 100% = 1 uM unlabeled human PCSK9, 0% = DMSO
How it was run: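 Read-out was TR-FRET ratio (665 nm over 615 nm, 330 nm excitation) between Alexa Fluor 647-human PCSK9 (16 nM added) and Europium Kryptate-human LDLR ectodomain (4 nM added). Compound and PCSK9 were mixed 30 min before LDLR, then incubated 2 h. Inhibition was normalised to DMSO and unlabelled-PCSK9 controls, giving IC50 and Amax.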

human PCSK9, sequence (Q8NBP7 153-692): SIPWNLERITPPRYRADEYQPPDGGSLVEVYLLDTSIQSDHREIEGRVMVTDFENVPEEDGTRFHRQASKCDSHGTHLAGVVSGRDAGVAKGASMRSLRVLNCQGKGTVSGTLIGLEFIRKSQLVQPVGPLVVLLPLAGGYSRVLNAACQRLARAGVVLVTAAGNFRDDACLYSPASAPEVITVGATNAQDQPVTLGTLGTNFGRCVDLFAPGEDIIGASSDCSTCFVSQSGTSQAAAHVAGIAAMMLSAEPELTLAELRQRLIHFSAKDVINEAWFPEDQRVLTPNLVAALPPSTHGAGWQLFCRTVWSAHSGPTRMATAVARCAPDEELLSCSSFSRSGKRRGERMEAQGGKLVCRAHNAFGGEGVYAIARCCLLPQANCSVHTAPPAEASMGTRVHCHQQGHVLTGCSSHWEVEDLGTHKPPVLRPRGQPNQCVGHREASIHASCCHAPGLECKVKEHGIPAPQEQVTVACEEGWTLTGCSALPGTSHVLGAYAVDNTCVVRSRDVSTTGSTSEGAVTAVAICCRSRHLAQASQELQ
human PCSK9, sequence (Q8NBP7 31-152 partner limits assumed): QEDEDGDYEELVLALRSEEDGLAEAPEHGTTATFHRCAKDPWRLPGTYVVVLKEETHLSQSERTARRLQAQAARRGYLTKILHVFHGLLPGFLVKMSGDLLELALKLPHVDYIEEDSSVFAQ

Compound | pIC50 | Max % inhibition [%]
COC[C@@H]1NC(=O)[C@H](C)N(Cc2c(F)cc(Cl)cc2Oc2ccc(-c3cnc(CN(C)C)n3C)cc2)C(=O)C[C@@H](CC(C)(F)F)C(=O)N2CCC[C@@](Cc3ccc(Cl)cc3)(C2)N(C)C1=O [Compound 158, (3S, 7S, 10S, 13R)-6-(4-chloro-2-(4-(2-((dimethylamino)methyl)-1-methyl-1H-imidazol-5-yl)phenoxy)-6-fluorobenzyl)-13-(4-chlorobenzyl)-3-(2,2-difluoropropyl)-10-(methoxymethyl)-7,12-dimethyl-1,6,9,12-tetraazabicyclo[11.3.1]heptadecane-2,5,8,11-tetraone] | 9.02 | 110.3
CNCc1ncc(-c2ccc(Oc3cc(Cl)cc(F)c3CN3C(=O)C[C@@H](CC(F)(F)F)C(=O)N4CCC[C@@](Cc5ccc(Cl)cc5)(C4)N(C)C(=O)[C@H](COC)NC(=O)[C@@H]3C)cc2)n1C [Compound 172, (3S, 7S, 10S, 13R)-6-(4-chloro-2-fluoro-6-(4-(1-methyl-2-((methylamino)methyl)-1H-imidazol-5-yl)phenoxy)benzyl)-13-(4-chlorobenzyl)-10-(methoxymethyl)-7,12-dimethyl-3-(2,2,2-trifluoroethyl)-1,6,9,12-tetraazabicyclo[11.3.1]heptadecane-2,5,8,11-tetraone] | 9.24 | 104.8
COC[C@@H]1NC(=O)[C@H](C)N(Cc2c(F)cc(Cl)cc2Oc2ccc(-c3cnc(CN(C)C)n3C)cc2)C(=O)C[C@@H](CC(F)(F)F)C(=O)N2CCC[C@@](Cc3ccc(Cl)cc3)(C2)N(C)C1=O [Compound 22, (3S,7S,10S,13R)-6-(4-Chloro-2-(4-(2-((dimethylamino)methyl)-1-methyl-1H-imidazol-5-yl)phenoxy)-6-fluorobenzyl)-13-(4-chlorobenzyl)-10-(methoxymethyl)-7,12-dimethyl-3-(2,2,2-trifluoroethyl)-1,6,9,12-tetraazabicyclo[11.3.1]heptadecane-2,5,8,11-tetraone] | 9.80 | 101.9
COC[C@@H]1NC(=O)[C@H](C)N(Cc2ncc(Cl)cc2Oc2ccc(-c3cnc(CN(C)C)n3C)nc2)C(=O)C[C@@H](Cc2ccccc2)C(=O)N2CCC[C@@](Cc3ccc(Cl)cc3)(C2)N(C)C1=O [Compound 85] | 8.85 | 101.7
COC[C@@H]1NC(=O)[C@H](C)N(Cc2ccc(Cl)cc2Oc2ccc(-c3cnc(CN4CCCC4)n3C)cc2)C(=O)C[C@@H](Cc2ccccc2)C(=O)N(CCCN(C)C)C[C@@H](Cc2ccc(Cl)cc2)N(C)C1=O.Cl [Compound 116, (2S, 5S, 8R, 12R)-12-benzyl-1-(4-chloro-2-(4-(1-methyl-2-(pyrrolidin-1-ylmethyl)-1H-imidazol-5-yl)phenoxy)benzyl)-8-(4-chlorobenzyl)-10-(3-(dimethylamino)propyl)-5-(methoxymethyl)-2,7-dimethyl-1,4,7,10-tetraazacyclotetradecane-3,6,11,14-tetraone] | 7.71 | 104.9

Results, then the molecule that gave them:

pIC50 | Max % inhibition [%] | Compound
9.28 | 97.5 | C[C@H]1C(=O)N[C@@H](CO)C(=O)N[C@@]2(Cc3ccc(Cl)cc3)CCCN(C2)C(=O)[C@H]([C@H]2CCc3ncccc32)CC(=O)N1Cc1ccc(Cl)cc1Oc1ccc(-c2cnc(CN(C)C)n2C)cc1.Cl [Compound 16, (3S, 7S, 10S, 13R)-6-(4-chloro-2-(4-(2-((dimethylamino)methyl)-1-methyl-1H-imidazol-5-yl)phenoxy)benzyl)-13-(4-chlorobenzyl)-3-((R)-6,7-dihydro-5H-cyclopenta[b]pyridin-5-yl)-10-(hydroxymethyl)-7-methyl-1,6,9,12-tetraazabicyclo[11.3.1]heptadecane-2,5,8,11-tetraone]
9.35 | 105.8 | C[C@H]1C(=O)N[C@@H](CO)C(=O)N(C)[C@@]2(Cc3ccc(Cl)cc3)CCCN(C2)C(=O)[C@H](Cc2ccccn2)CC(=O)N1Cc1c(F)cc(Cl)cc1Oc1ccc(-c2cnc(CN(C)C)n2C)cc1 [Compound 32, (3R,7S,10S,13R)-6-(4-Chloro-2-(4-(2-((dimethylamino)methyl)-1-methyl-1H-imidazol-5-yl)phenoxy)-6-fluorobenzyl)-13-(4-chlorobenzyl)-10-(hydroxymethyl)-7,12-dimethyl-3-(pyridin-2-ylmethyl)-1,6,9,12-tetraazabicyclo[11.3.1]heptadecane-2,5,8,11-tetraone]
9.52 | 113.0 | COC[C@@H]1NC(=O)[C@H](C)N(Cc2c(F)cc(Cl)cc2Oc2ccc(-c3cnc(CN(C)C(C)(C)C)n3C)cc2)C(=O)C[C@@H](CC(F)(F)F)C(=O)N2CCC[C@@](Cc3ccc(Cl)cc3)(C2)NC1=O [Compound 137, (3S,7S,10S,13R)-6-(2-(4-(2-((tert-Butyl(methyl)amino)methyl)-1-methyl-1H-imidazol-5-yl)phenoxy)-4-chloro-6-fluorobenzyl)-13-(4-chlorobenzyl)-10-(methoxymethyl)-7-methyl-3-(2,2,2-trifluoroethyl)-1,6,9,12-tetraazabicyclo[11.3.1]heptadecane-2,5,8,11-tetraone]
9.45 | 110.0 | C[C@H]1C(=O)N[C@@H](CO)C(=O)N[C@@]2(Cc3ccc(Cl)cc3)CCCN(C2)C(=O)[C@H](Cc2ccccc2)CC(=O)N1Cc1c(F)cc(Cl)cc1Oc1ccc(-c2cnc(CN(C)C)n2C)cc1 [Compound 11, (3R, 7S, 10S, 13R)-3-benzyl-6-(4-chloro-2-(4-(2-((dimethylamino)methyl)-1-methyl-1H-imidazol-5-yl)phenoxy)-6-fluorobenzyl)-13-(4-chlorobenzyl)-10-(hydroxymethyl)-7-methyl-1,6,9,12-tetraazabicyclo[11.3.11]-heptadecane-2,5,8,11-tetraone]
9.40 | 101.9 | C[C@H]1C(=O)N[C@@H](CO)C(=O)N[C@@]2(Cc3ccc(Cl)cc3)CCCN(C2)C(=O)[C@H](CC(F)(F)F)CC(=O)N1Cc1c(F)cc(Cl)cc1Oc1ccc(-c2cnc(CNC3CCC3)n2C)cc1 [Compound 5, (3S, 7S, 10S, 13R)-6-(4-chloro-2-(4-(2-((cyclobutylamino)methyl)-1-methyl-1H-imidazol-5-yl)phenoxy)-6-fluorobenzyl)-13-(4-chlorobenzyl)-10-(hydroxymethyl)-7-methyl-3-(2,2,2-trifluoroethyl)-1,6,9,12-tetraazabicyclo[11.3.1]heptadecane-2,5,8,11-tetraone]
7.67 | 102.5 | COC[C@@H]1NC(=O)[C@H](C)N(Cc2ccc(Cl)cc2Oc2ccc(-c3cnc(CN4CCCC4)n3C)cc2)C(=O)C[C@@H]([C@H]2CCc3ccccc32)C(=O)N(CCC(F)F)C[C@@H](Cc2ccc(Cl)cc2)N(C)C1=O.Cl [Compound 113]
9.33 | 104.7 | COC[C@@H]1NC(=O)[C@H](C)N(Cc2c(F)cc(Cl)cc2Oc2ccc(-c3cnc(CN(C)C)n3C)nc2)C(=O)C[C@@H](CC(F)(F)F)C(=O)N2CCC[C@@](Cc3ccc(Cl)cc3)(C2)NC1=O [Compound 8]
